Where a name gives a salt, the structure may show the parent alone.
Tests used:
[1] = target: T1, proton, potassium-adenosine triphosphatase (H+/K+-ATPase) (Sus scrofa, UniProt P19156); experiment: Proton potassium-adenosine triphosphatase (H+,K+-ATPase) inhibitory activity test; type: biochemical; conditions: swine gastric mucous membrane microsomal fraction, pH 6.5, 37° C.
T1 construct: a gastric mucous membrane microsomal fraction was prepared from the stomach of swine; from tissue; host or cells: swine stomach, gastric mucous membrane microsomal fraction
T1 sequence (P19156 2-1034 limits assumed): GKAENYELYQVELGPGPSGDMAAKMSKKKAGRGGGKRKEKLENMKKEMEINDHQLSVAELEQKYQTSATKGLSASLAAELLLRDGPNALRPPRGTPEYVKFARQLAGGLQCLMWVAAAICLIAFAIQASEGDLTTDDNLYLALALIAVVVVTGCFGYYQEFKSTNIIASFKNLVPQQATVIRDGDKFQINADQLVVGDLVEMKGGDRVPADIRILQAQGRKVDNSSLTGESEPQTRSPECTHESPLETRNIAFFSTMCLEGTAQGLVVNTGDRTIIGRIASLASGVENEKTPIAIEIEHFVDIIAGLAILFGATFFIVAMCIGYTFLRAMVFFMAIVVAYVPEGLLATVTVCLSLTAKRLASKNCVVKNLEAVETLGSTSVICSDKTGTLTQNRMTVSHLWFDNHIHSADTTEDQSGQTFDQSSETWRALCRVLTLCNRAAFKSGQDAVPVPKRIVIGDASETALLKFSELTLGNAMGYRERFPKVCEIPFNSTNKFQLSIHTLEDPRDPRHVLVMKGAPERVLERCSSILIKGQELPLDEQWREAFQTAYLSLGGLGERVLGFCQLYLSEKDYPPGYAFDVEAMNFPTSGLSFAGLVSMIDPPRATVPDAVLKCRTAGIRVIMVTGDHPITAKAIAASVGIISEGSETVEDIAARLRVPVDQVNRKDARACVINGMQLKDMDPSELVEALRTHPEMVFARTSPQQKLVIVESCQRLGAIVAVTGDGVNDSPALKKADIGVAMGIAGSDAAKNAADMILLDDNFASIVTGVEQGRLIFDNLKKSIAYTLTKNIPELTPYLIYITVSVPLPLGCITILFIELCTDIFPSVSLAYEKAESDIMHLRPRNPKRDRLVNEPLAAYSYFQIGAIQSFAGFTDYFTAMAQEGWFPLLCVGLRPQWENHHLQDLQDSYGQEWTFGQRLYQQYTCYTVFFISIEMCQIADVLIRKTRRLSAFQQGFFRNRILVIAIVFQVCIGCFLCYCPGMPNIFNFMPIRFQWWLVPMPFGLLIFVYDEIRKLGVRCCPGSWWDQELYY
T1 sequence (P18434 whole entry partner): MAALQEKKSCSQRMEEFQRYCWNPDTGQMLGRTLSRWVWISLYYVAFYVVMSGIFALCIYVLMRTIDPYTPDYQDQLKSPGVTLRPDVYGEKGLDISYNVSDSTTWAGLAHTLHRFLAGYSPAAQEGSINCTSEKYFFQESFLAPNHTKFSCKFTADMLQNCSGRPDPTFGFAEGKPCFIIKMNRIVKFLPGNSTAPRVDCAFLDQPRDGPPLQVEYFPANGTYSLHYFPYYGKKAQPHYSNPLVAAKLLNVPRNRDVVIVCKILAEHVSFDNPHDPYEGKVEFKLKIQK
Method: According to the method [Biochim. Biophys. Acta, 728, 31 (1983)] of Wallmark et al., a gastric mucous membrane microsomal fraction was prepared from the stomach of swine. First, the stomach was removed, washed with tap water, immersed in 3 mol/L brine, and the surface of the mucous membrane was wiped with a paper towel. The gastric mucous membrane was detached, chopped, and homogenized in a 0.25 mol/L saccharose solution (pH 6.8) containing 1 mmol/L EDTA and 10 mmol/L tris-hydrochloric acid using polytron (Kinematica). The obtained homogenate was centrifuged at 20,000×g for 30 min and the supernatant was centrifuged at 100,000×g for 90 min. The precipitate was suspended in 0.25 mol/L saccharose solution, superimposed on a 0.25 mol/L saccharose solution containing 7.5% Ficoll, and centrifuged at 100,000×g for 5 hr. The fraction containing the interface between the both layers was recovered, and centrifugally washed with 0.25 mol/L saccharose solution. The obtained microsomal fraction was used as a proton, potassium-adenosine triphosphatase standard product.
To 40 μL of a 50 mmol/L HEPES-tris buffer (5 mmol/L magnesium chloride, 10 mmol/L potassium chloride, 10 μmol/L valinomycin, pH=6.5) containing 2.5 μg/mL (based on the protein concentration) of the enzyme standard product was added a test compound (5 μL) dissolved in a 10% aqueous dimethyl sulfoxide solution, and the mixture was incubated at 37° C. for 30 min. The enzyme reaction was started by adding 5 μL of a 2 mmol/L adenosine triphosphate tris salt solution (50 mmol/L HEPES-tris buffer (5 mmol/L magnesium chloride, pH 6.5)). The enzyme reaction was carried out at 37° C. for 20 min, and 15 μL of a malachite green solution (0.12% malachite green solution in sulfuric acid (2.5 mol/L), 7.5% ammonium molybdate and 11% Tween 20 were mixed at a ratio of 100:25:2) was added to quench the reaction. After allowing to stand at room temperature for 15 min, the resulting reaction product of inorganic phosphorus with malachite green was colorimetrically determined at a wavelength of 620 nm. In addition, the amount of the inorganic phosphoric acid in the reaction solution free of potassium chloride was measured in the same manner, which was subtracted from the inorganic phosphoric acid amount in the presence of potassium chloride to determine the proton, potassium-adenosine triphosphatase activity. The inhibitory rate (%) was determined from the activity value of the control and the activity values of various concentrations of the test compound, and the 50% inhibitory concentration (IC50) of the proton, potassium-adenosine triphosphatase was determined.

[2] = system: Caspase-3/7 activity in HepG2 cells; experiment: Caspase-3/7 activity test; type: cell-based, Human; conditions: HepG2, 100 μM, culture for one day, relative to maximum with Staurosporine (100%) and no reagent (0%)
Method: (§1) Human liver cancer-derived cell line HepG2 (ATCC No. HB-8065) was passaged using Dulbecco's Modified Eagle medium (DMEM; Invitrogen) containing 10% fetal bovine serum (FBS; TRACE SCIENTIFIC LTD.), 1 mmol/L sodium pyruvate (Invitrogen), 2 mmol/L L-glutamine (Invitrogen), 50 IU/mL penicillin (Invitrogen) and 50 μg/mL streptomycin (Invitrogen) at 5% CO2, 37° C. The test reagent was prepared with DMSO to 10 mM, and further diluted with DMEM medium containing 0.5% FBS, 1 mmol/L sodium pyruvate, 2 mmol/L L-glutamine, 50 IU/mL penicillin and 50 μg/mL streptomycin to a final concentration of DMSO of 0.1%. HepG2 (2×10^4 cells/well) was cultured on a 96 well white plate (Costar) with the test reagent at 5% CO2, 37° C. After culture for one day, the intracellular ATP content was measured using ATPLITE™ (PerkinElmer Life Sciences). The results are shown in Table 4 (n≧3, average value ±SD) as a relative value (%) to control (without addition of drug).
The Caspase-3/7 activity in the cells cultured for one day by a method similar to that in Experimental Example 3 was measured using CASPASE-GLO 3/7 Assay (Promega). The results are shown in Table 4 (n≧3, average value ±SD) as relative activity (%) of each reagent based on the maximum value of Caspase-3/7 activity when exposed to Staurosporine (100%), and the activity without addition of a test reagent (0%).

HepG2 = experiment: ATP content test; type: cell-based, Human; conditions: HepG2, 100 μM, culture for one day, relative value to control (without drug)
Method: as §1

Compound | IC50 [1] [µM] | Caspase-3/7 activity (%, 100 μM) [2] [%] | ATP content (%, 100 μM) (HepG2) [%]
CNCc1cn(S(=O)(=O)c2cc(C)ccn2)c(-c2cccnc2F)c1F [Example 24, 1-{4-Fluoro-5-(2-fluoropyridin-3-yl)-1-[(4-methylpyridin-2-yl)sulfonyl]-1H-pyrrol-3-yl}-N-methylmethanamine succinate] | 0.14 | – | –
CNCc1cn(S(=O)(=O)c2cc(C)ccn2)c(-c2cccnc2F)c1F [Example 2, 1-{4-Fluoro-5-(2-fluoropyridin-3-yl)-1-[(4-methylpyridin-2-yl)sulfonyl]-1H-pyrrol-3-yl}-N-methylmethanamine hydrochloride] | 0.1 | −1.1 | 85.5
CNCc1cn(S(=O)(=O)c2cncc(F)c2)c(-c2cccnc2F)c1F [Example 5, 1-{4-Fluoro-5-(2-fluoropyridin-3-yl)-1-[(5-fluoropyridin-3-yl)sulfonyl]-1H-pyrrol-3-yl}-N-methylmethanamine hydrochloride] | 0.2 | 0.3 | 88.9
CNCc1cn(S(=O)(=O)c2ccc(C)nc2)c(-c2cccnc2F)c1F [Example 8, 1-{4-Fluoro-5-(2-fluoropyridin-3-yl)-1-[(6-methylpyridin-3-yl)sulfonyl]-1H-pyrrol-3-yl}-N-methylmethanamine 0.5 fumarate] | 0.18 | 2.4 | 76.7
CNCc1cn(S(=O)(=O)c2cc(OC)ccn2)c(-c2cccnc2F)c1F [Example 4, 1-{4-Fluoro-5-(2-fluoropyridin-3-yl)-1-[(4-methoxypyridin-2-yl)sulfonyl]-1H-pyrrol-3-yl}-N-methylmethanamine hydrochloride] | 0.14 | −0.6 | 84.5
CNCc1cn(S(=O)(=O)c2ccc(OC)cn2)c(-c2cccnc2F)c1F [Example 10, 1-{4-Fluoro-5-(2-fluoropyridin-3-yl)-1-[(5-methoxypyridin-2-yl)sulfonyl]-1H-pyrrol-3-yl}-N-methylmethanamine hydrochloride] | 0.28 | 0.9 | 80.0
CNCc1cn(S(=O)(=O)c2cncc(F)c2)c(-c2cccnc2F)c1F [Example 27, 1-{4-Fluoro-5-(2-fluoropyridin-3-yl)-1-[(5-fluoropyridin-3-yl)sulfonyl]-1H-pyrrol-3-yl}-N-methylmethanamine L-tartrate] | 0.16 | – | –
CNCc1cn(S(=O)(=O)c2cc(C)ccn2)c(-c2cccnc2F)c1F [Example 23, 1-{4-Fluoro-5-(2-fluoropyridin-3-yl)-1-[(4-methylpyridin-2-yl)sulfonyl]-1H-pyrrol-3-yl}-N-methylmethanamine fumarate] | 0.083 | – | –
CNCc1cn(S(=O)(=O)c2cncc(F)c2)c(-c2cccnc2F)c1F [Example 26, 1-{4-Fluoro-5-(2-fluoropyridin-3-yl)-1-[(5-fluoropyridin-3-yl)sulfonyl]-1H-pyrrol-3-yl}-N-methylmethanamine succinate] | 0.13 | – | –
CNCc1cn(S(=O)(=O)c2ccc(F)cn2)c(-c2cccnc2F)c1F [Example 3, 1-{4-Fluoro-5-(2-fluoropyridin-3-yl)-1-[(5-fluoropyridin-2-yl)sulfonyl]-1H-pyrrol-3-yl}-N-methylmethanamine hydrochloride] | 0.1 | −0.5 | 86.5
CNCc1cn(S(=O)(=O)c2cncc(F)c2)c(-c2cccnc2F)c1F [Example 25, 1-{4-Fluoro-5-(2-fluoropyridin-3-yl)-1-[(5-fluoropyridin-3-yl)sulfonyl]-1H-pyrrol-3-yl}-N-methylmethanamine 0.5 fumarate] | 0.2 | – | –

Reference: patent US8592597B2, “Pyrrole compounds” (Takeda Pharmaceutical Company Limited, priority 2008, dated 2013)
